Converted amounts (≈) assume the structure as drawn.
Key:
Helicobacter pylori [1] = assay: Inhibition of Helicobacter pyroli PFOR expressed in Escherichia coli at 40 uM
Clostridioides difficile = assay: Antimicrobial activity against Clostridium difficile; format: functional
Campylobacter jejuni = assay: Antimicrobial activity against Campylobacter jejuni; format: functional
Helicobacter pylori [2] = assay: Antimicrobial activity against Helicobacter pylori; format: functional

SMILES | inhibition (Helicobacter pylori [1]) | MIC (Clostridioides difficile) | MIC (Campylobacter jejuni) | MIC (Helicobacter pylori [2])
O=C(Nc1ncc([N+](=O)[O-])s1)c1ccoc1 | 56% | 12.5 µM (≈ 2.99 µg/mL) | 2.1 µM (≈ 0.502 µg/mL) | 0.8 µM (≈ 0.191 µg/mL)
CCCCCC(=O)Nc1nc(Cl)c([N+](=O)[O-])s1 | 63% | 36 µM (≈ 10 µg/mL) | 28.8 µM (≈ 8 µg/mL) | 0.9 µM (≈ 0.25 µg/mL)
O=C(Nc1ncc([N+](=O)[O-])s1)c1cccs1 [TENONITROZOLE] | 50% | 2.9 µM (≈ 0.74 µg/mL) | 1 µM (≈ 0.255 µg/mL) | 2.9 µM (≈ 0.74 µg/mL)
CCCCCC(=O)Nc1sc([N+](=O)[O-])cc1[N+](=O)[O-] | 80% | 0.9 µM (≈ 0.259 µg/mL) | 27.8 µM (≈ 7.99 µg/mL) | 2.6 µM (≈ 0.747 µg/mL)
O=C(Nc1sc([N+](=O)[O-])cc1[N+](=O)[O-])c1cccc(C(F)(F)F)c1 | 47% | 2.1 µM (≈ 0.759 µg/mL) | 4.2 µM (≈ 1.52 µg/mL) | 0.5 µM (≈ 0.181 µg/mL)
O=C(Nc1sc([N+](=O)[O-])cc1[N+](=O)[O-])c1cccs1 | 77% | 1 µM (≈ 0.299 µg/mL) | 20 µM (≈ 5.99 µg/mL) | 2.5 µM (≈ 0.748 µg/mL)
O=C(Nc1ncc([N+](=O)[O-])s1)c1cccc(C(F)(F)F)c1 | 47% | 4.7 µM (≈ 1.49 µg/mL) | 0.4 µM (≈ 0.127 µg/mL) | 3.5 µM (≈ 1.11 µg/mL)
CC(=O)Oc1ccccc1C(=O)Nc1ncc([N+](=O)[O-])s1 [NITAZOXANIDE] | 54% | 39.1 µM (≈ 12 µg/mL) | 0.8 µM (≈ 0.246 µg/mL) | 13 µM (≈ 3.99 µg/mL)
O=C(Nc1sc([N+](=O)[O-])cc1[N+](=O)[O-])c1ccccc1 | 55% | 0.9 µM (≈ 0.264 µg/mL) | 27.3 µM (≈ 8.01 µg/mL) | 1.3 µM (≈ 0.381 µg/mL)
CCCCCC(=O)Nc1ncc([N+](=O)[O-])s1 | 70% | 2.1 µM (≈ 0.511 µg/mL) | 8.2 µM (≈ 1.99 µg/mL) | 0.5 µM (≈ 0.122 µg/mL)
O=C(Nc1nc(Cl)c([N+](=O)[O-])s1)c1cccs1 | 51% | 13.8 µM (≈ 4 µg/mL) | > 13.8 µM | 6.9 µM (≈ 2 µg/mL)
O=C(Nc1sc([N+](=O)[O-])cc1[N+](=O)[O-])c1ccoc1 | 66% | 0.4 µM (≈ 0.113 µg/mL) | 3.5 µM (≈ 0.991 µg/mL) | 2.6 µM (≈ 0.736 µg/mL)
O=C(Nc1nc(Cl)c([N+](=O)[O-])s1)c1cccc(C(F)(F)F)c1 | 27% | 34.1 µM (≈ 12 µg/mL) | > 22.7 µM | 5.7 µM (≈ 2 µg/mL)
O=C(Nc1nc(Cl)c([N+](=O)[O-])s1)c1ccccc1 | 59% | 7 µM (≈ 1.99 µg/mL) | > 28.2 µM | 8.8 µM (≈ 2.5 µg/mL)

Source: ChEMBL document CHEMBL1158616, “Biological activity of modified and exchanged 2-amino-5-nitrothiazole amide analogues of nitazoxanide” (2010)
